One data set deals with BT20 cells. Nature of the data set: Cellular uptake of Compound 003. The format is in vitro ADME, human. The following applies: 50 μM, 1 hr. From the text:
Intracellular metabolism of Compound 003 was studied in CEM T-lineage lymphoma cell line, BT20 breast cancer cell line, T98 glioblastoma cell line, and Nalm-6 B-lineage leukemia cell line. CEM and Nalm6 cells were maintained in RPMI supplemented with 10% fetal bovine serum, and 1% penicillin/streptomycin. BT20 and T98 cells w.ere cultured in a medium composed of MEM, 10% fetal bovine serum, 0.1-mM of nonessential amino acids and Earles salts, and 1% penicillin/streptomycin. CEM and Nalm6 cells at a density of 10^6 cells per ml were utilized in the drug metabolism study. BT20 and T98 cells were seeded in 6-cm petri-dishes at 4 million cells and 2 million cells per plate, respectively, the day before the experiment. Either one plate of adherent cells or 10 million non-adherent cells was utilized at each time point. Cells were incubated with various concentrations of the compounds up to 24 hrs at 37° C. After incubation, cells were washed 2 times with ice-cold PBS, and extracted by addition of 0.5-1 ml of 60% methanol. […] With efflux experiments, cells 1×10^6/mL (the same density as in the uptake study) were incubated with 100 μM Compound 003 for 1 hr, washed 2 times with ice-cold PBS, and resuspended with culture medium without drug, and the metabolite efflux from cells to the medium was measured after 6 hr of incubation.

Another data set has as its system MOLT-3 T-lymphoma cells. Nature of the data set: Confocal laser scanning microscopy of mitotic spindle, MOLT-3. The note with it: 100 μM. The class given is cell-based, human. The procedure:
Immunofluorenscence was used to examine the spindle features of human cancer cell lines treated with Compound 003 or 0.5% DMSO. Initially, cells at log phase were seeded onto sterile 22 mm coverslips in six -well culture plates. 24 hours later, the cells were treated with compound 003 for 2 hours at 37° C., 5% C02, fixed in methanol (−20° C. 15 min) followed by a 15 minute incubation with PBS +0.1.% Tx-100. The coverslips were incubated with antibodies raised against α-tubulin, γ-tubulin (Sigma Chemical Co., St Louis, Mo.) (40 min 37° C.), washed in PBS-Tx-100, and incubated with an appropriate secondary antibody conjugated to FITC (Jackson ImmunoResearch, Westgrove, Pa.). Cellular DNA was labeled with 5 μM TOTO3 (Molecular Probes, Eugene, Oreg.) for 20 minutes. Coverslips were immediately inverted onto slides in Vectashield (Vector Labs, Burlingame, Calif.) to prevent photobleaching, sealed with nail varnish and stored at −20° C. The slides were examined using a Bio-Rad MRC-1024 Laser Scanning Confocal Microscope equipped with a Kr/Ar laser (BioRad, Hercules, Calif.) mounted on a Nikon Eclipse E800 upright microscope with high numerical aperture objectives (Nikon, Melville, N.Y.). Digital data were processed using Lasersharp (BioRad) and Adobe Photoshop software (Adobe Systems, Mountain View, Calif.). […]

The next data set has as its system NALM6 cells. In words: Gene profiling, Atlas Human cDNA Expression arrays. The format is cell-based. The procedure: Gene Profiling using the Atlas Human cDNA Expression arrays from Molecular Dynamics was preformed according to the manufacturer's specification, as described below.
Total RNA was prepared from NALM6 cells treated with Compound 003 (5, 50TM, vehicle) using Tripure isolation reagent (Boehringer Mannheim); the reagent is a monophasic solution of phenol and guanidine thiocyanate, followed by Dnase treatment (RQ1 Rnase-Free Dnase, Promega). Total RNA was quantified using standard spectrophotometric methods.
For probe preparation and hybridization, approximately 5 micrograms of total RNA was converted into radioactively labeled cDNA using […] (Amersham) by reverse transcriptase (Clontech). Chroma Spin columns (Clontech) were used to purify labeled cDNA. Atlas cDNA probe was denatured with 1M NaOH/10 mM EDTA and neutralized with 1M NaH2PO4 and C0t-1 DNA at 68° C. Prehybridization solution was discarded and arrays were hybridized overnight. Arrrays were washed 4 times by using 2×SSC/1% SDS and 2 times by using 0.1×SSC/0.5% SDS. Membranes were sealed and exposed to a phosphoscreen (Molecular Dynamics). The expression levels were quantified using 8 bit gray levels using image analysis software (Imagene 4.2, Biodiscovery; Inc).
For the Atlas Human cDNA Expression array, 588 genes were subdivided into these six functional groups: (A) Oncogenes, Tumor suppressors Cell Cycle regulators, (B) Ion channels and transport, Modulators, stress response, (C) Apoptosis, DNA synthesis, repair and recombination, (D) Transcription factors, DNA binding proteins, (E) Receptors, Cell surface antigens, Cell adhesion & (F) Growth factors, cytokines, chemokines, Interleukins, Hormones. The letters correspond to individual quadrants on the array and may be noted as the first letter in each abbreviation in Table 4.
Spots on the macro arrays (5, 50 Tm and control) were analyzed using the spot finder technique in the Imagene software. The integrity and fragmentation: due to saturated pixels, of the spots was assessed and appropriate background measurements were chosen to detect signals. […] All drug treated samples (5, 50TM) were compared to no drug controls using a linear regression method for log2 transformed density readings (Genesight 3.1, Biodiscovery). A piecewise linear regression method (3 bins, minimum of 20 elements per bin) was used normalize density readings across the three arrays to minimize the effect of low expression and saturated signals on the regression. All housekeeping genes were monitored for detection of false positive signals.

As to `COC(=O)C(C)NP(=O)(OCC1OC(n2cc(C)c(=O)[nH]c2=O)CC1N=[N+]=[N-])Oc1ccc(OC)cc1` (stereo not drawn) [Compound 003, 3′-azidothymidine 5′-[p-methoxyphenylmethoxyalaninyl phosphate]], in the data set on BT20 cells, the “uptake of Compound 003, BT20 relative to Nalm6 and CEM cells” value is “about 2 fold”. In addition, in the data set on MOLT-3 T-lymphoma cells, the mitotic spindle formation result is given as “induced aberrant multipolar spindle formation”. Also, in the data set with NALM6 cells, the “decreased expression of GADD 153 gene” value was around 3.5 fold and the “downregulation of c-jun proto-oncogene” value is around 2 fold. Also, in the data set on NALM6 cells (50 μM), the “increase in the gene for myeloid cell nuclear differentiation antigen (MNDA)” value is on record as around 4 fold and the “increased expression of FAN gene” value stood at 3 fold.

Source of the values: US20060046972A1, “Cytotoxic nucleoside analog compound 003 for treating cancer” (Parker Hughes Institute, priority 2004, published 2006).
